Laboratory results reported in US20260365990A1, “METHOD FOR THE PRESERVATION OF FUNCTIONAL GAMETES” (Julius-Maximilians-Universität Würzburg, in Vertretung des …, priority 2022, published 2026).
“Also recorded” adds a separate entry of the source.

Key:
spermatozoa [1] = assay: Static oxidation-reduction potential (sORP) of human sperm samples by MiOXSYS; format: cell-based; conditions: for Change in oxidation-reduction potential (sORP, ratio treated/untreated): mean±SD; for Oxidation-reduction potential, samples 42_1 and 38_7 (in words): samples with drastically elevated untreated values, FIGS. 7D and 8D
Method: (§1) Between 1.46 mL and 5.7 mL human semen/spermatozoa were collected from healthy males of between 25 and 50 years of age in 100 mL sample vials on site. Samples were then divided into two equal fractions each for subsequent incubation with CO (wCO) and without CO (woCO). In order to estimate the spermatozoa concentration in the samples and to establish an initial baseline for each sample, a routine spermiogram was performed before samples were transferred to gas-tight 15 mL Falcon tubes. Samples were incubated at 25-35 °C for 90 minutes with and without an activated CORS system in a closed container. During this incubation period liquefaction took place naturally. The samples were then analyzed for total motility, progressive motility, static oxidation-reduction potential, and for DNA fragmentation. Total motility, progressive motility and concentration of the samples were assessed using a CEROS II (Hamilton Thorne, Beverly, MA) computer assisted sperm analysis (CASA) system. 6 μL of a sperm sample diluted 1:1 with Multipurpose Handling Medium-Complete (MHM-C, FujiFilm/IrvineScientific, Santa Ana, CA) was measured and the concentration and level of mobility (total and progressive motility) was assessed.
A Male Infertility Oxidative System (MiOXSYS, Englewood, CO) was used to determine static oxidation-reduction potential (sORP) levels. 30 μL of the sperm samples were transferred to the sample application port on a MiOXSYS sensor and analyzed for 2 minutes.
(§2) In this example, sperm samples were treated with either one, three, or six CORS capsules, each loaded with 5 mg Mo-CORM (corresponds to 0.44 mL CO) for 60 to 270 mins, or left untreated for the same amount of time.
(§3) Human sperm was collected from healthy volunteers in 100 ml specimen containers. Afterwards, the ejaculate was split into equal parts and filled into 15 mL gas tight falcon tubes, with one of the samples being exposed to one or more activated CORS. Then, both samples were analyzed for motility parameters via computer assisted sperm analysis (CASA), the static oxidation-reduction potential (sORP) via MiOXSYS and sperm DNA-fragmentation (SDF) via dispersion test with Halosperm G2 Kit after a predetermined time.
An oxidative male infertility measuring System (MiOXSYS, Englewood, CO) was used to determine static oxidation-reduction potential (SORP) levels following manufacturer's specifications. 30 μL of sample were transferred to the sample application port onto a MiOXSYS sensor and analyzed for 2 minutes. The results were expressed in milli Volt (mV) and normalized to the seminal sperm concentration (mV/106 sperm/mL).

spermatozoa [2] = assay: Sperm DNA fragmentation (SDF) by dispersion test, Halosperm G2 Kit; format: cell-based, human; conditions: for DNA-fragmentation change (SDF, ratio treated/untreated): mean±SD
Method: as §1
To determine DNA fragmentation a count-based microscopy assay was performed. For this spermatozoa samples were diluted using MHM-C (Multipurpose Handling Medium-Complete, FujiFilm, IrvineScientific) to a maximum of 20×E6 spermatozoa per mL and analyzed using a Halo Sperm G2 Kit (Halotech, Madrid, Spain). Samples were mixed with the prepared agarose according to manufacturer instructions. 8 μL of the resulting mixture was then put on microscopy slides and cooled down for 5 minutes by removing the heat source. The prepared samples were further treated according to the manufacturer's instructions: denaturant for 7 minutes, lysis solution for 20 minutes, distilled water for 5 minutes, 70% ethanol for 2 minutes, 100% ethanol for 2 minutes, eosin staining solution for 7-10 minutes, and thiazine staining solution for 7-10 minutes. At least 300 spermatozoa were then analyzed using a bright field microscope.
as §2, §3
Sperm DNA fragmentation (SDF) was assessed via dispersion test using a Halosperm G2 Kit (From Halotech, Madrid, Spain) following manufacturer's specifications. In brief, the samples were diluted to a maximum of 20 mio/mL. The samples were, then, mixed with the prepared agarose. 8 μL of the mixture was transferred on slides and cooled down for 5 minutes. Different reagents were added and discarded after the set time: Denaturant agent was added for 7 minutes, lysis solution for 20 minutes, distilled water for 5 minutes, 70% ethanol for 2 minutes, 100% ethanol for 2 minutes, eosin staining solution for 7-10 minutes, and thiazine staining solution for 7-10 minutes. A minimum of 400 sperms were analyzed using an Olympus IX73 Inverted LED Fluorescence Microscope.

spermatozoa [3] = assay: Computer assisted sperm analysis (CASA, CEROS II) of human spermatozoa treated with CO vs. without CO: total motility, progressive motility, average path velocity (VAP); format: cell-based; conditions: for Change in progressive motility (ratio treated/untreated) / Change of VAP (ratio treated/untreated) / Change in motility (ratio treated/untreated) / Change in velocity of the sperm cells (VAP, ratio treated/untreated): mean±SD
Method: as §1, §2, §3
Total motility, progressive motility, VAP, and concentration of the samples were tested using a CEROS II (Hamilton Thorne, Beverly, MA) computer assisted sperm analysis (CASA) system. 6 μL of a sperm sample diluted 1:1 with Multipurpose Handling Medium-Complete (MHM-C, Fuji Film/Irvine Scientific, Santa Ana, CA) was investigated with the CASA system, and the level of mobility was assessed.

[4] = 0.44 mL CO (5 mg Mo-CORM), 90 min
[5] = 1.32 mL CO (15 mg Mo-CORM), 60 min
[6] = 1.32 mL CO (15 mg Mo-CORM), 90 min
[7] = 1.32 mL CO (15 mg Mo-CORM), 180 min
[8] = 1.32 mL CO (15 mg Mo-CORM), 270 min
[9] = 2.64 mL CO (30 mg Mo-CORM), 90 min
[10] = Example 3, 60 min and 90 min, 0.44 mL and 1.32 mL CO
[11] = Example 3, up to 90 min, 0.44-2.64 mL CO

[C-]#[O+] [CO, carbon monoxide]
Change in oxidation-reduction potential (sORP, ratio treated/untreated) (spermatozoa [1]; [4]): 0.89±0.17 fold
Change in oxidation-reduction potential (sORP, ratio treated/untreated) (spermatozoa [1]; [5]): 0.57±0.35 fold
Change in oxidation-reduction potential (sORP, ratio treated/untreated) (spermatozoa [1]; [6]): 0.91±0.12 fold
Change in oxidation-reduction potential (sORP, ratio treated/untreated) (spermatozoa [1]; [7]): 1.02±0.32 fold
Change in oxidation-reduction potential (sORP, ratio treated/untreated) (spermatozoa [1]; [8]): 1.13±0.28 fold
Change in oxidation-reduction potential (sORP, ratio treated/untreated) (spermatozoa [1]; [9]): 0.59±0.24 fold
Correlation of CO effect on sORP with untreated sORP (in words) (spermatozoa [1]; 60 min and 90 min, 15 mg CORM, FIG. 9): particularly effective in subjects that suffer from high sperm oxidation-reduction potential
Relative oxidation-reduction potential wCO/woCO (in words) (spermatozoa [1]; Example 2, 15 mg Mo-CORM, 90 min, 25-35 °C, 6 subjects, FIG. 2): show a trend to be lower in the samples that were contacted with CO; also recorded: a reduction in oxidative stress/ROS
Oxidation-reduction potential vs untreated (in words) (spermatozoa [1]; [10]): reduced
Oxidation-reduction potential, samples 42_1 and 38_7 (in words) (spermatozoa [1]): strong reduction
Oxidation-reduction potential, samples 42_1 and 38_7 (in words) (spermatozoa [1]; listed as carbon monoxide): reduced oxidation-reduction potential
DNA-fragmentation change (SDF, ratio treated/untreated) (spermatozoa [2]; [4]): 0.83±0.09 fold
DNA-fragmentation change (SDF, ratio treated/untreated) (spermatozoa [2]; [5]): 0.77±0.07 fold
DNA-fragmentation change (SDF, ratio treated/untreated) (spermatozoa [2]; [6]): 0.67±0.24 fold
DNA-fragmentation change (SDF, ratio treated/untreated) (spermatozoa [2]; [7]): 0.90±0.11 fold
DNA-fragmentation change (SDF, ratio treated/untreated) (spermatozoa [2]; [8]): 0.90±0.19 fold
DNA-fragmentation change (SDF, ratio treated/untreated) (spermatozoa [2]; [9]): 1.31±0.55 fold
Correlation of CO effect on SDF with untreated SDF (in words) (spermatozoa [2]; 60 min and 90 min, 15 mg CORM, FIG. 10): particularly effective in subjects that suffer from high sperm oxidation-reduction potential and/or DNA-fragmentation
Relative DNA fragmentation wCO/woCO (in words) (spermatozoa [2]; Example 2, 15 mg Mo-CORM, 90 min, 25-35 °C, 3 subjects, FIG. 3): DNA fragmentation is reduced in samples that were contacted with CO; also recorded: a reduction in DNA fragmentation
DNA fragmentation, subjects 3 and 4 (in words) (spermatozoa [2]; Example 2, FIG. 3, treated vs untreated aliquots of same donor): less DNA fragmentation
Spermatozoan DNA-fragmentation (SDF) vs untreated (in words) (spermatozoa [2]; [10]): reduced
DNA fragmentation, samples 42_1 and 38_7 (in words) (spermatozoa [2]; samples with drastically elevated untreated values, FIGS. 7E and 8E): strong reduction
Change in progressive motility (ratio treated/untreated) (spermatozoa [3]; [4]): 0.97±0.12 fold
Change of VAP (ratio treated/untreated) (spermatozoa [3]; [4]): 1.01±0.08 fold
Change in motility (ratio treated/untreated) (spermatozoa [3]; 0.44 mL CO (5 mg Mo-CORM, one CORS), 90 min): 0.98±0.12 fold
Change in progressive motility (ratio treated/untreated) (spermatozoa [3]; [5]): 0.85±0.13 fold
Change in velocity of the sperm cells (VAP, ratio treated/untreated) (spermatozoa [3]; [5]): 0.94±0.09 fold
Change in motility (ratio treated/untreated) (spermatozoa [3]; [6]): 0.99±0.03 fold
Change in progressive motility (ratio treated/untreated) (spermatozoa [3]; [6]): 0.92±0.17 fold
Change in velocity of the sperm cells (VAP, ratio treated/untreated) (spermatozoa [3]; [6]): 0.96±0.04 fold
Change in motility (ratio treated/untreated) (spermatozoa [3]; [7]): 1.16±0.37 fold
Change in progressive motility (ratio treated/untreated) (spermatozoa [3]; [7]): 0.72±0.19 fold
Change in velocity of the sperm cells (VAP, ratio treated/untreated) (spermatozoa [3]; [7]): 0.79±0.13 fold
Change in motility (ratio treated/untreated) (spermatozoa [3]; [8]): 0.94±0.20 fold
Change in progressive motility (ratio treated/untreated) (spermatozoa [3]; [8]): 1.04±0.48 fold
Change in velocity of the sperm cells (VAP, ratio treated/untreated) (spermatozoa [3]; [8]): 0.97±0.08 fold
Change in motility (ratio treated/untreated) (spermatozoa [3]; 1.32 mL CO (15 mg Mo-CORM, three CORS), 60 min): 1.13±0.41 fold
Change in progressive motility (ratio treated/untreated) (spermatozoa [3]; [9]): 0.88±0.10 fold
Change of VAP (ratio treated/untreated) (spermatozoa [3]; [9]): 1.03±0.03 fold
Change in motility (ratio treated/untreated) (spermatozoa [3]; 2.64 mL CO (30 mg Mo-CORM, six CORS), 90 min): 0.90±0.12 fold
Relative total motility wCO/woCO (in words) (spermatozoa [3]; Example 2, 15 mg Mo-CORM, 90 min, 25-35 °C, 5 subjects, FIG. 4A): no differences between samples that were contacted with CO (wCO) and without CO (woCO)
Relative progressive motility wCO/woCO (in words) (spermatozoa [3]; Example 2, 15 mg Mo-CORM, 90 min, 25-35 °C, 5 subjects, FIG. 4B, exception subject 6): progressive motility is increased for wCO as compared to woCO; also recorded: an improvement of progressive motility
Effect on spermatozoan motility (in words) (spermatozoa [3]; Example 3, 60 min or 90 min, 0.44 mL or 1.32 mL CO): no negative effects on spermatozoan motility
Effect on progressive motility vs untreated (in words) (spermatozoa [3]; [11]): did not impair sperm motility, progressive motility
Effect on sperm motility vs untreated (in words) (spermatozoa [3]; [11]): did not impair sperm motility
Effect on velocity vs untreated (in words) (spermatozoa [3]; [11]): did not impair sperm motility, progressive motility, and velocity
